Results from PMC11251196, “Actinium chelation and crystallization in a macromolecular scaffold” (Nature Communications, 2024).

Legend:
Type in all cases: binding
siderocalin (Scn) [1] = target: T1, siderocalin (Scn) (Homo sapiens, UniProt P80188); assay: tryptophan fluorescence quenching titration, pH […]; crystal structure at […] Å
T1 construct: gene LCN2

siderocalin (Scn) [2] = target: T1, siderocalin (Scn); assay: as above; remark: listed apart in the source
siderocalin (Scn) [3] = target: T1, siderocalin (Scn); assay: tryptophan fluorescence quenching titration of metal-free ligand, pH […]

T1 sequence (P80188 21-198): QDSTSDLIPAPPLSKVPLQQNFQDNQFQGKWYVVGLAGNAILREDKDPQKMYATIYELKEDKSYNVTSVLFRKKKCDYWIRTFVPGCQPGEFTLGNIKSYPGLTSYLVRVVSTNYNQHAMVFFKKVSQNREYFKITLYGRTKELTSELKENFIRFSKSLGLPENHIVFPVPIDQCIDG

O=C(NCCCN(CCCCN(CCCNC(=O)c1cccc(=O)n1O)C(=O)c1cccc(=O)n1[O-])C(=O)c1cccc(=O)n1[O-])c1cccc(=O)n1[O-].[Ac+3] [[Ac^III(HOPO)]^1–]
Kd (siderocalin (Scn) [1]): 6 nM

O=C(NCCCN(CCCCN(CCCNC(=O)c1cccc(=O)n1O)C(=O)c1cccc(=O)n1[O-])C(=O)c1cccc(=O)n1[O-])c1cccc(=O)n1[O-].[La+3] [[La^III(HOPO)]^1–]
Kd (siderocalin (Scn) [2]): 20 nM

O=C(NCCCN(CCCCN(CCCNC(=O)c1cccc(=O)n1O)C(=O)c1cccc(=O)n1O)C(=O)c1cccc(=O)n1O)c1cccc(=O)n1O [HOPO, 3,4,3-LI(1,2-HOPO)]
Kd (siderocalin (Scn) [3]): 43 nM
